Measured values reported in PubChem BioAssay (NCI).
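Compound exposure: 48 hours, 5 concentrations, 96-well plates. GI50: concentration for 50% inhibition of growth. TGI marks complete inhibition of growth.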

What was measured:
Test in all cases: NCI-60 cell line screen, 48 h
OVCAR-4 ovarian = tested on: OVCAR-4 ovarian
PC-3 prostate = tested on: PC-3 prostate
DU-145 prostate = tested on: DU-145 prostate
UACC-62 melanoma = tested on: UACC-62 melanoma
HOP-62 NSCLC = tested on: HOP-62 NSCLC
OVCAR-3 ovarian = tested on: OVCAR-3 ovarian
HCT-116 colon = tested on: HCT-116 colon
CAKI-1 renal = tested on: CAKI-1 renal
RPMI-8226 leukemia = tested on: RPMI-8226 leukemia
A498 renal = tested on: A498 renal
NCI-H226 lung = tested on: NCI-H226 lung
HL-60(TB) leukemia = tested on: HL-60(TB) leukemia
NCI-H460 lung = tested on: NCI-H460 lung
M14 melanoma = tested on: M14 melanoma
U251 CNS = tested on: U251 CNS
LOX IMVI melanoma = tested on: LOX IMVI melanoma
RXF 393 renal = tested on: RXF 393 renal
SK-MEL-2 melanoma = tested on: SK-MEL-2 melanoma
SK-OV-3 ovarian = tested on: SK-OV-3 ovarian
HCT-15 colon = tested on: HCT-15 colon
HT29 colon = tested on: HT29 colon
786-0 renal = tested on: 786-0 renal
UACC-257 melanoma = tested on: UACC-257 melanoma
A549 NSCLC = tested on: A549 NSCLC
MCF7 breast = tested on: MCF7 breast
SK-MEL-5 melanoma = tested on: SK-MEL-5 melanoma
SF-268 CNS = tested on: SF-268 CNS
NCI/ADR-RES ovarian = tested on: NCI/ADR-RES ovarian
K-562 leukemia = tested on: K-562 leukemia
OVCAR-8 ovarian = tested on: OVCAR-8 ovarian
BT-549 breast = tested on: BT-549 breast
SR leukemia = tested on: SR leukemia
SK-MEL-28 melanoma = tested on: SK-MEL-28 melanoma
UO-31 renal = tested on: UO-31 renal
NCI-H23 lung = tested on: NCI-H23 lung
CCRF-CEM leukemia = tested on: CCRF-CEM leukemia
HCC-2998 colon = tested on: HCC-2998 colon
SN12C renal = tested on: SN12C renal
NCI-H522 lung = tested on: NCI-H522 lung
ACHN renal = tested on: ACHN renal
IGROV1 ovarian = tested on: IGROV1 ovarian
MOLT-4 leukemia = tested on: MOLT-4 leukemia
TK-10 renal = tested on: TK-10 renal
SW-620 colon = tested on: SW-620 colon
KM12 colon = tested on: KM12 colon
EKVX NSCLC = tested on: EKVX NSCLC
HOP-92 NSCLC = tested on: HOP-92 NSCLC
HS 578T breast = tested on: HS 578T breast
MALME-3M melanoma = tested on: MALME-3M melanoma
T-47D breast = tested on: T-47D breast
SF-295 CNS = tested on: SF-295 CNS
OVCAR-5 ovarian = tested on: OVCAR-5 ovarian
SF-539 CNS = tested on: SF-539 CNS
SNB-75 CNS = tested on: SNB-75 CNS
MDA-MB-435 = tested on: MDA-MB-435
COLO 205 colon = tested on: COLO 205 colon
MDA-MB-231 breast = tested on: MDA-MB-231 breast

## COc1cccc2c1nc1cccc(OC)c1[n+]2[O-]
OVCAR-4 ovarian
  GI50: 4.16 µM
  TGI: 20.9 µM
PC-3 prostate
  GI50: 13.3 µM
  TGI: 37 µM
DU-145 prostate
  GI50: 4.54 µM
  TGI: 16.9 µM
UACC-62 melanoma
  GI50: 3.35 µM
  TGI: 14.1 µM
HOP-62 NSCLC
  GI50: 4.14 µM
  TGI: 17.8 µM
OVCAR-3 ovarian
  GI50: 15.7 µM
  TGI: 39.2 µM
HCT-116 colon
  GI50: 3.64 µM
  TGI: 16.9 µM
CAKI-1 renal
  GI50: 2.44 µM
  TGI: 10.4 µM
RPMI-8226 leukemia
  GI50: 7.69 µM
  TGI: 31.4 µM
A498 renal
  GI50: 2.87 µM
  TGI: 16.2 µM
NCI-H226 lung
  GI50: 10.6 µM
  TGI: 23.8 µM
HL-60(TB) leukemia
  GI50: 2.52 µM
  TGI: 5.94 µM
NCI-H460 lung
  GI50: 2.76 µM
  TGI: 10.7 µM
M14 melanoma
  GI50: 3.47 µM
  TGI: 16.2 µM
U251 CNS
  GI50: 6.83 µM
  TGI: 21.3 µM
LOX IMVI melanoma
  GI50: 4.23 µM
  TGI: 18.4 µM
RXF 393 renal
  GI50: 4.36 µM
  TGI: 22.1 µM
SK-MEL-2 melanoma
  GI50: 5.44 µM
  TGI: 18.4 µM
SK-OV-3 ovarian
  GI50: 3.19 µM
  TGI: 15.7 µM
HCT-15 colon
  GI50: 2.93 µM
  TGI: 12.7 µM
HT29 colon
  GI50: 1.55 µM
  TGI: 13.9 µM
786-0 renal
  GI50: 3.61 µM
  TGI: 15 µM
UACC-257 melanoma
  GI50: 13.1 µM
  TGI: 35 µM
A549 NSCLC
  GI50: 7.8 µM
  TGI: 38.9 µM
MCF7 breast
  GI50: 0.941 µM
  TGI: 12.9 µM
SK-MEL-5 melanoma
  GI50: 6.96 µM
  TGI: 20 µM
SF-268 CNS
  GI50: 2.65 µM
  TGI: 13.8 µM
NCI/ADR-RES ovarian
  GI50: 5.51 µM
  TGI: 28.4 µM
K-562 leukemia
  GI50: 11.5 µM
  TGI: 26.6 µM
OVCAR-8 ovarian
  GI50: 4.4 µM
  TGI: 25 µM
BT-549 breast
  GI50: 5.94 µM
  TGI: 28.2 µM
SR leukemia
  GI50: 0.568 µM
  TGI: 4.17 µM
SK-MEL-28 melanoma
  GI50: 6.31 µM
  TGI: 20.2 µM
UO-31 renal
  GI50: 3.07 µM
  TGI: 15.6 µM
NCI-H23 lung
  GI50: 2.56 µM
  TGI: 18.9 µM
CCRF-CEM leukemia
  GI50: 2.35 µM
  TGI: 13.3 µM
HCC-2998 colon
  GI50: 1.5 µM
  TGI: 6.98 µM
SN12C renal
  GI50: 4.15 µM
  TGI: 16.3 µM
NCI-H522 lung
  GI50: 3.98 µM
  TGI: 18.1 µM
ACHN renal
  GI50: 2.2 µM
  TGI: 9.96 µM
IGROV1 ovarian
  GI50: 2.35 µM
  TGI: 15.9 µM
MOLT-4 leukemia
  GI50: 0.46 µM
  TGI: 2.62 µM
TK-10 renal
  GI50: 16.3 µM
  TGI: 47.6 µM
SW-620 colon
  GI50: 3 µM
  TGI: 15.9 µM
KM12 colon
  GI50: 11.6 µM
  TGI: 28.4 µM
EKVX NSCLC
  GI50: 13.7 µM
  TGI: 30.9 µM
HOP-92 NSCLC
  GI50: 2.71 µM
  TGI: 9.28 µM
HS 578T breast
  GI50: 5.23 µM
  TGI: 31.2 µM
MALME-3M melanoma
  GI50: 12.8 µM
  TGI: 30.3 µM
T-47D breast
  GI50: 1.7 µM
  TGI: 9.26 µM
SF-295 CNS
  GI50: 2.11 µM
  TGI: 7.96 µM
OVCAR-5 ovarian
  GI50: 27.8 µM
  TGI: 93 µM
SF-539 CNS
  GI50: 3.91 µM
  TGI: 17.3 µM
SNB-75 CNS
  GI50: 2.49 µM
  TGI: 14.5 µM
MDA-MB-435
  GI50: 16.8 µM
  TGI: 44.8 µM
COLO 205 colon
  GI50: 10.9 µM
  TGI: 26.7 µM
MDA-MB-231 breast
  GI50: 16.4 µM
  TGI: 41.4 µM
